According to patent US11052163B2, “Homing agents” (Washington University, priority 2013, dated 2021):
“Also recorded” adds a separate entry of the source.

Legend:
[1] = target: T1, fibrin (acellular clot phantoms) (Homo sapiens, UniProt P02671+P02675+P02679); experiment: Clot phantom binding in presence of 50% serum (Example 5)
T1 construct: 100 μL of human plasma was quickly mixed with 3 unit of thrombin solution; from tissue; host or cells: human plasma clotted with thrombin
T1 sequence (P02671 20-644 isoform P02671-2 limits assumed): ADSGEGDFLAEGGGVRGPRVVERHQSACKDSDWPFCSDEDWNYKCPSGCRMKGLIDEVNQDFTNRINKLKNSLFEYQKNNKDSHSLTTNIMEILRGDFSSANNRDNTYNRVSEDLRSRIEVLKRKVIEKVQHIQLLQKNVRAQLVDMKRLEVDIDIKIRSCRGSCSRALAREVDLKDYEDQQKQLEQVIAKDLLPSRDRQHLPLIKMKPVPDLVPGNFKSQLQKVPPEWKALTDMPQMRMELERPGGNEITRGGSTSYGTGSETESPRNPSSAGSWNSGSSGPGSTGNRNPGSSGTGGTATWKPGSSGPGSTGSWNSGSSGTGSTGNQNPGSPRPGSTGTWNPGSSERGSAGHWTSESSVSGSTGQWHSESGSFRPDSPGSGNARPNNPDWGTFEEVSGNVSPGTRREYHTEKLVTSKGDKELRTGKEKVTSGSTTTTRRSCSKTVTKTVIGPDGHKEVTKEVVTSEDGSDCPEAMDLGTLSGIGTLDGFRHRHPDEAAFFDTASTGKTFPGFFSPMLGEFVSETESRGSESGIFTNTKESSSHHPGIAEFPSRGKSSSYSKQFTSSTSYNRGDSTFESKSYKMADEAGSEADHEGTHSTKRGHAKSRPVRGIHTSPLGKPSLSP
T1 sequence (P02675 45-491 limits assumed): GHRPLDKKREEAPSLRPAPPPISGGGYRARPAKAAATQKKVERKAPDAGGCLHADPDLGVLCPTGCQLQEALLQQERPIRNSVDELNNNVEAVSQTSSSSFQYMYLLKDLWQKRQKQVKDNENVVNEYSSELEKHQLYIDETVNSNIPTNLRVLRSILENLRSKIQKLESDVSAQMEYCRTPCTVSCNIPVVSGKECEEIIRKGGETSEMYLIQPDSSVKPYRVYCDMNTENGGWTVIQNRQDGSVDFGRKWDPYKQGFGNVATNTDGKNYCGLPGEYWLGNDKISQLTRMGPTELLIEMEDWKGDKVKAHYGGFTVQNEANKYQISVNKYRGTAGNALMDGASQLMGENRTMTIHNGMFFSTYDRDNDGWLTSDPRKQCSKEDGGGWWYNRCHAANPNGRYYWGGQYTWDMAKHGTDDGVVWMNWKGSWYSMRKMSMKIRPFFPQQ
T1 sequence (P02679 27-437 isoform P02679-2 limits assumed): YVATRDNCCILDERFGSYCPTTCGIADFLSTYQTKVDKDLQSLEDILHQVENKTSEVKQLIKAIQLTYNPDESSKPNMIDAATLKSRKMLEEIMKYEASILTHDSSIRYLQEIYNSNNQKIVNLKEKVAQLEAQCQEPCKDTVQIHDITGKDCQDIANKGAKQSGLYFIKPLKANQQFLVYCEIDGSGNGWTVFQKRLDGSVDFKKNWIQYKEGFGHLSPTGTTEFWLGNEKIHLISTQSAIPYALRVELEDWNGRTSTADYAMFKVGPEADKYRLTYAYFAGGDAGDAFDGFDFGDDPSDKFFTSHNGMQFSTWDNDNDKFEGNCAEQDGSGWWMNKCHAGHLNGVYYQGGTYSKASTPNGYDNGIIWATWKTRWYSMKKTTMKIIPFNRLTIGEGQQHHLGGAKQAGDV
Protocol: (§1) In a parallel experiment, binding of the fibrin-binding monomeric construct to acellular clot phantoms in the presence of excess cysteine, or in the presence of 50% serum was also tested. For excess cysteine conditions, 0.25 mg of cysteine in 0.5 mL PBS was also combined with the monomeric construct and clot phantoms. The experiment was conducted as described above, and incubated for 120 min at 37° C. in a water bath. […] Cys is used to test the stability of the metal on the agent, and binding of the agent without the metal would look like lower binding. Instability and loss of the metal in the presence of serum could have accounted for the lower binding of the monomeric peptide, but the metal was stable. […] Thus the peptide binding was interfered with by off-target association with something in serum, likely albumen. This was consistent with previous reports describing the serum binding of the monomeric fibrin-binding peptide.

[2] = target: T1, fibrin (acellular clot phantoms); experiment: Binding of 99mTc monomeric construct to acellular clot phantoms (Scatchard plot)
Protocol: Clot phantoms were generated using a typical procedure wherein 100 μL of human plasma was quickly mixed with 3 unit of thrombin solution. The resulting solution was then transferred into a plastic cylinder tube. Once clots were formed, they were placed each in 4 mL 0.1 M PBS buffer, pH7.0 solution.
The fibrin-binding monomer construct labeled with ^99mTc (10 mCi/350 μg) was prepared and analyzed by TLC as described in the examples above. The construct was diluted to generate a dilution series comprising 1, 5, 10, 15, 25, and 30 μg peptide construct in a total volume of 0.5 mL 0.1 M PBS at pH 7.4.
The monomeric construct was then combined with clot phantoms and incubated for 30 min at 37° C. in a water bath. Clot phantoms were separated from the solution by centrifugation device, and radioactivity was measured in the clot and the supernatant using a calibrated dosimeter. The experiment was repeated for three times and data were analyzed by Scatchard plot and regression analysis (FIG. 3). […] The dissociation constant (Kd) and the number of binding sites per clot were also determined.

[3] = 99mTc label retention with excess cysteine, clot phantoms (Example 5); assay type: physicochemical; settings: 0.25 mg cysteine in 0.5 mL PBS, 120 min, 37° C.
Protocol: as §1

fibrin clots = experiment: Ex vivo LVAD flow study using a mock loop; assay type: binding; settings: 10,000 RPM, 6 L/min, 2 minutes, 50:50 plasma:PBS, 0.5 mCi
Protocol: The high shear (10,000 RPM) and high flow (6 L/min) of the LVAD, which is required to pump the entire circulating blood volume of the patient every minute, places severe demands on the binding affinity and clot retention of the nuclear probe. […] The ½″ plastic tubing circuit was filled with a 50:50 human plasma:PBS mixture (200 ml). Uniform fibrin clots were secured with a highly porous, thin gauze netting within a plastic ½″ chamber immediately proximal to the LVAD inlet secured. ^99mTc-F1A or ^99mTc-F4A were injected into the mock loop and allowed to target the clots at the full flux rate for 2 minutes.
Ex vivo LVAD flow study using a mock loop: A LVAD (Heartmate II) driven by a computer-controlled console was inserted into a 200 ml mock flow loop comprised of ½″ plastic tubing interconnecting a PBS/Fresh Plasma (50:50) reservoir, an injection port, a media drainage port, and an inline ½″ plastic chamber. Uniform fibrin clots produced by mixing fibrinogen, thrombin, and calcium and aged 24 hours were secured within the inline chamber using a highly porous, single thread layer of cotton gauze. […] Radioactive circulating plasma/PBS was drained and replaced with PBS, which circulated for 2 minutes to remove unbound radioactivity. Clot radioactivity was counted in a calibrated gamma well counter and the results adjusted for decay.

fibrin clot [4] = target: T2, fibrin clot (Homo sapiens, UniProt P02671+P02675+P02679); experiment: Plasma interference on fibrin clot binding (50:50 plasma:PBS)
T2 construct: admixing 100 μl of fresh human plasma with 3 units thrombin (Sigma Chemical); from tissue; host or cells: fresh human plasma clotted with thrombin (Sigma Chemical)
T2 sequence (P02671 20-644 isoform P02671-2 limits assumed): T1 sequence (P02671 20-644 isoform P02671-2 limits assumed)
T2 sequence (P02675 45-491 limits assumed): T1 sequence (P02675 45-491 limits assumed)
T2 sequence (P02679 27-437 isoform P02679-2 limits assumed): T1 sequence (P02679 27-437 isoform P02679-2 limits assumed)
Protocol: (§2) Acellular fibrin clot assays of probe affinity, radiolabel stability, and plasma interference: Acellular fibrin clots were used: 1) to characterize the binding affinity of ^99mTc-F1A and ^99mTc-F4A, 2) to assess the stability of ^99mTc chelation, and 3) to evaluate the extent of plasma interference of fibrin binding. Specifically, uniform clots were produced by quickly admixing 100 μl of fresh human plasma with 3 units thrombin (Sigma Chemical). The mixture was pipetted into uniform cylindrical plastic tubes. Once formed, clots were washed repeatedly in 0.1 M PBS buffer (pH 7.0) then stored in same until use at 4° C.
Assessment of ^99mTc-F1A and ^99mTc-F4A radiolabel stability and plasma interference: Radiolabeled F1A and F4A were bound to clots in the presence of marked excess cysteine to evaluate the stability of the ^99mTc label in triplicate.^49 99mTc-F1A or ^99mTc-F4A (20 μCi) supplemented with 0.1 M PBS pH 7.4 (total volume of 0.5 ml) were incubated with fibrin clot samples at 37° C. for 30 minutes. Similarly, the 0.1 M PBS buffer diluted 50% with fresh human plasma (total volume of 0.5 ml) was used to assess potential matrix interference on radiolabeled peptide binding in triplicate. In both instances, fibrin clots were separated from unbound radioactivity by repeated centrifugation, washed, then counted in a calibrated well counter (Wizard 3, Perkin Elmer).

fibrin clot [5] = target: T2, fibrin clot; experiment: Fibrin binding affinity, acellular fibrin clot assay (Hill slope model); settings: uniform fibrin clots in PBS, read-out: dissociation constant (Kd)
Protocol: as §2
Fibrin binding affinity: ^99mTc-F1A or ^99mTc-F4A (20 μCi) were incubated with the clot samples at 37° C. for 30 minutes with 1, 5, 10, 15, 25, and 30 μg cold monomer supplemented with 0.1 M PBS pH 7.4 to bring each test volume total to 0.5 ml. The fibrin clots were separated from unbound radioactivity by repeated centrifugation and washing then counted in a calibrated well counter (Wizard 3, Perkin Elmer). Results, adjusted for decay, were used to estimate dissociation constant (kd) using the Hill slope model, Y=Bmax*X^h/(Kd^h+X^h) (MatLab). Total fibrin concentration was estimated from plasma fibrinogen estimated to be 0.735 nmoles per clot.

For “99mTc-labeled monomer: fibrin homing peptide QWECPYGLCWIQ linked through PEG2 spacer to technetium chelating sequence HHE [^99mTc-F1A]”, which “binding of labeled peptide to clot in presence of 50% serum” value [1] is on record?
The value was “greatly diminished”.

And the “binding site per clot” value [2]?
The value was 8.48E+14.

And the “binding site per mg” value [2]?
The value was 1.21E+15.

What about the “effect of excess cysteine on coupling of the 99mTc radiolabel” value [3] of the same substance?
Its value is “did not impact the secure coupling”.

What about the “clot binding and retention in LVAD mock loop” value (fibrin clots) of the same substance?
The value was “very low signal level; also recorded: very close to background level counts”.

What about the “fibrin clot binding in 50:50 plasma:PBS versus PBS” value (fibrin clot [4]) of the same substance?
Its value is “severely compromised; also recorded: dramatically reduced”.

What about the Kd (fibrin clot [5]) of the same substance?
The Kd was about 10.2 µM.
